According to patent publication US8404720B2, “Aryl sulfonamide amine compounds and their use as 5-HT6 ligands” (Suven Life Sciences Limited, priority 2008, dated 2013):

Columns and labels:
Human 5-HT6 Receptor = Human 5-HT6 Receptor (Homo sapiens, UniProt P50406); test: Binding Assay for Human 5-HT6 Receptor ([3H]LSD radioligand); settings: [3H]LSD 1.5 nM, human recombinant receptor in HEK293 cells; for % Inhibition at 100 nM: 100 nM test compound; for % Inhibition at 1000 nM: 1000 nM test compound; for % Inhibition at 10 nM: 10 nM test compound
Method: Receptor source: Human recombinant expressed in HEK293 cells
Radioligand: [^3H]LSD (60-80 Ci/mmol)
Final ligand concentration— [1.5 nM]
Non-specific determinant: Methiothepin mesylate— [0.1 μM]
Reference compound: Methiothepin mesylate
Positive control: Methiothepin mesylate
Reactions were carried out in 50 μM TRIS-HCl (pH 7.4) containing 10 μM MgCl2, 0.5 mM EDTA for 60 minutes at 37° C. The reaction was terminated by rapid vacuum filtration onto glass fiber filters. Radioactivity trapped onto the filters was determined and compared to control values in order to ascertain any interactions of test compound(s) with the cloned serotonin 5-HT6 binding site.

rats = test: Water Maze (scopolamine induced reversal); format: in vivo; settings: p.o.
Method: The water maze apparatus consisted of a circular pool (1.8 m diameter, 0.6 m high) constructed in black Perspex (TSE systems, Germany) filled with water (24±2° C.) and positioned underneath a wide-angled video camera to track animal. The 10 cm^2 perspex platform, lying 1 cm below the water surface, was placed in the centre of one of the four imaginary quadrants, which remained constant for all rats. The black Perspex used in the construction of the maze and platform offered no intramaze cues to guide escape behavior. By contrast, the training room offered several strong extramaze visual cues to aid the formation of the spatial map necessary for escape learning. An automated tracking system, [Videomot 2 (5.51), TSE systems, Germany] was employed. This program analyzes video images acquired via a digital camera and an image acquisition boards that determined path length, swim speed and the number of entries and duration of swim time spent in each quadrant of the water maze.

Male Wister rats = test: Object Recognition Task Model; format: in vivo; settings: rat, 3 mg/kg p.o.; for Exploration time mean ± S.E.M (sec), first value column / Exploration time mean ± S.E.M (sec), second value column: choice trial T2; for Exploration time mean ± S.E.M (sec), first value column: first of two columns (sub-head not printed, presumably familiar object); for Exploration time mean ± S.E.M (sec), second value column: second of two columns (sub-head not printed, presumably novel object); for Inference: object recognition task
Method: The cognition-enhancing properties of compounds of this invention were estimated using a model of animal cognition: the object recognition task model.
Male Wister rats (230-280 grams) obtained from N. I. N. (National Institute of Nutrition, Hyderabad, India) was used as experimental animals. Four animals were housed in each cage. Animals were kept on 20% food deprivation before one day and given water ad libitum throughout the experiment and maintained on a 12 hours light/dark cycle. Also the rats were habituated to individual arenas for 1 hour in the absence of any objects.
One group of 12 rats received vehicle (1 mL/Kg) orally and another set of animals received compound of the formula (I) either orally or i.p., before one hour of the familiar (T1) and choice trial (T2).
The experiment was carried out in a 50×50×50 cm open field made up of acrylic. In the familiarization phase, (T1), the rats were placed individually in the open field for 3 minutes, in which two identical objects (plastic bottles, 12.5 cm height×5.5 cm diameter) covered in yellow masking tape alone (a1 and a2) were positioned in two adjacent corners, 10 cm. from the walls. After 24 hours of the (T1) trial for long-term memory test, the same rats were placed in the same arena as they were placed in T1 trial. Choice phase (T2) rats were allowed to explore the open field for 3 minutes in presence of one familiar object (a3) and one novel object (b) (Amber color glass bottle, 12 cm high and 5 cm in diameter). Familiar objects presented similar textures, colors and sizes. During the T1 and T2 trial, explorations of each object (defined as sniffing, licking, chewing or having moving vibrissae whilst directing the nose towards the object at a distance of less than 1 cm) were recorded separately by stopwatch. Sitting on an object was not regarded as exploratory activity, however, it was rarely observed.
T1 is the total time spent exploring the familiar objects (a1+a2).
T2 is the total time spent exploring the familiar object and novel object (a3+b).
The object recognition test was performed as described by Ennaceur, A., Delacour, J., A new one-trial test for neurobiological studies of memory in rats—Behavioural data, Behay. Brain Res., 1988, 31, 47-59.

[1] = Rodent Pharmacokinetic Study; format: in vivo, Male wistar rats; settings: Wistar/Male rat; for AUCt / T1/2 / Tmax / Cmax: 50% PEG-400 in water for injection; for Cmax: plasma; for Bioavailability: oral 10 mg/kg versus intravenous
Method: Male wistar rats (230-280 grams) obtained from NIN (National Institute of Nutrition, Hyderabad, India) were used as an experimental animal.
Three to five animals were housed in each cage. Animals were kept fasted over night and maintained on a 12 hours light/dark cycle. […]
At each time point blood was collected by jugular vein. Plasma was stored frozen at −20° C. until analysis. The concentrations of the NCE compound in plasma were determined using LC-MS/MS method.
Schedule time points: Pre dose. 0.25, 0.5, 1, 1.5, 2, 3, 4, 6, 8, 10, 12 and 24 hours after dosing (n=3). The NCE compounds were quantified in plasma by validated LC-MS/MS method using solid phase extraction technique. NCE compounds were quantified in the calibration range of 2-2000 ng/mL in plasma. Study samples were analyzed using calibration samples in the batch and quality control samples spread across the batch.
Pharmacokinetic parameters Cmax, Tmax, AUCt, AUCinf, half life, volume of distribution, clearance, mean residence time and thereby oral bioavailability were calculated by non-compartmental model using software WinNonlin version 5.1.

[2] = Rodent Brain Penetration Study; format: in vivo, Male Wister rats; settings: Wistar/Male rat, Intravenous infusion, 1 mg/kg, brain/plasma
Method: Male Wister rats (230-280 grams) obtained from NIN (National Institute of Nutrition, Hyderabad, India) was used as an experimental animal. Three animals were housed in each cage. Animals were given water and food ad libitum throughout the experiment, and maintained on a 12 hours light/dark cycle.
Brain penetration was determined at steady state in rat. One day prior to dosing day, male wistar rats (225-250 grams) were anesthetized with halothane for surgical placement of jugular and femoral vein catheters. After surgery, the rats were housed in individual rat infusion cage connected with infusion components (Instech Solomon; Plymouth Meeting, Pa. USA) and allowed free access to food and water
NCE compound was dissolved in water and administered at a constant infusion rate (5 mL/kg/hr) over 6-10 hours at a target dose rate of 1.0 mg free base/kg/h. Blood samples were removed during the latter part of the infusion to confirm steady-state blood concentrations, brain and blood was collected and estimated. Animals will be sacrificed to collect the plasma and brain tissue and was homogenized. Plasma and Brain was stored frozen at −20° C. until analysis. The concentrations of the NCE compound in plasma and Brain were determined using LC-MS/MS method.
The NCE compounds were quantified in plasma and brain homogenate by validated LC-MS/MS method using solid phase extraction technique. NCE compounds were quantified in the calibration range of 1-500 ng/mL in plasma and brain homogenate. Study samples were analyzed using calibration samples in the batch and quality control samples spread across the batch. Extents of brain-blood ratio were calculated (Cb/Cp).

Human 5-HT6 Receptor, sequence (P50406 whole entry): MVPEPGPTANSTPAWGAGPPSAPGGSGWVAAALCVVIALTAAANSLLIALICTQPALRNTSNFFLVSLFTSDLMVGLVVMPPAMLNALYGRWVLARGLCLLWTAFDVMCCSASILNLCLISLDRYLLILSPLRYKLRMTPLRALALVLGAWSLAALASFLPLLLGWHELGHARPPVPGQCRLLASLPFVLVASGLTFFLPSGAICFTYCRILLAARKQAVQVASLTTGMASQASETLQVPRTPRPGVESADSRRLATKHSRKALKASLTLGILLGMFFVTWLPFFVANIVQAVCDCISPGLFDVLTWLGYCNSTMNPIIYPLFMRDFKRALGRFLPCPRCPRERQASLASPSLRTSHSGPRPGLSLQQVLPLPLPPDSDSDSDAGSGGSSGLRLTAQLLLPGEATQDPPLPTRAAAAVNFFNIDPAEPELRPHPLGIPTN

In the case of Cc1ccc(S(=O)(=O)Nc2ccc(C)c(NC3CCN(C)CC3)c2)cc1 [Example 18, 4-Methyl-N-[4-Methyl-3-(1-Methylpiperidin-4-ylamino)phenyl] benzenesulfonamide], the “% Inhibition at 100 nM” value (Human 5-HT6 Receptor) is reported as 63.42% and the “% Inhibition at 1000 nM” value (Human 5-HT6 Receptor) is reported as 92.37%.

In the case of CN1CCC(Nc2cccc(NS(=O)(=O)c3ccccc3Br)c2)CC1 [Example 11, 2-Bromo-N-[3-(1-methylpiperidin-4-ylamino)phenyl] benzenesulfonamide], the “% Inhibition at 10 nM” value (Human 5-HT6 Receptor) is reported as 8.56%, the “% Inhibition at 100 nM” value (Human 5-HT6 Receptor) is reported as 64.11% and the “% Inhibition at 1000 nM” value (Human 5-HT6 Receptor) is reported as 94.73%.

With Cc1ccc(S(=O)(=O)Nc2cccc(NC3CCN(C)CC3)c2)cc1 [Example 14, 4-Methyl-N-[3-(1-methylpiperidin-4-ylamino)phenyl] benzenesulfonamide] the “% Inhibition at 100 nM” value (Human 5-HT6 Receptor) was 45.25% and the “% Inhibition at 1000 nM” value (Human 5-HT6 Receptor) was 80.78%.

For Cc1ccc(S(=O)(=O)Nc2ccc(Cl)c(NC3CCN(C)CC3)c2)cc1 [Example 3, 4-Methyl-N-[4-Chloro-3-(1-methylpiperidin-4-ylamino)phenyl] benzenesulfonamide], the “% Inhibition at 100 nM” value (Human 5-HT6 Receptor) was 78.66% and the “% Inhibition at 1000 nM” value (Human 5-HT6 Receptor) was 98.42%.

With CN1CCC(Nc2cc(NS(=O)(=O)c3ccc(F)cc3)ccc2Cl)CC1 [Example 2, 4-Fluoro-N-[4-Chloro-3-(1-methylpiperidin-4-ylamino)phenyl] benzenesulfonamide] the “% Inhibition at 100 nM” value (Human 5-HT6 Receptor) was 69.45% and the “% Inhibition at 1000 nM” value (Human 5-HT6 Receptor) was 96.73%.

In the case of Cc1ccc(NS(=O)(=O)c2ccc(F)cc2)cc1NC1CCN(C)CC1 [Example 17, 4-Fluoro-N-[4-Methyl-3-(1-Methylpiperidin-4-ylamino)phenyl] benzenesulfonamide], the “% Inhibition at 100 nM” value (Human 5-HT6 Receptor) is reported as 64.27% and the “% Inhibition at 1000 nM” value (Human 5-HT6 Receptor) is reported as 93.00%.

COc1ccc(NS(=O)(=O)c2ccccc2Br)cc1N(C)C1CCN(C)CC1 showed a melting point of 119.2 to 121.3 °C.

With COc1ccc(NS(=O)(=O)c2ccccc2Br)cc1NC1CCN(C)CC1 [Example 8, 2-Bromo-N-[4-Methoxy-3-(1-methylpiperidin-4-ylamino)phenyl] benzenesulfonamide] the “Scopolamine Induced Reversal” value (rats) was “≦3 mg/kg, p.o”, the “Exploration time mean ± S.E.M (sec), first value column” value (Male Wister rats) was 6.72 ± 1.95 s and the “Exploration time mean ± S.E.M (sec), second value column” value (Male Wister rats) was 9.58 ± 2.26 s. For the same compound, the Inference (Male Wister rats) was “Active”, the AUCt ([1]; Intravenous, 10 mg/kg) was 9919 ± 701 ng·h/mL and the T1/2 ([1]; Intravenous, 10 mg/kg) was 2.18 ± 0.54 h. It also gave a Tmax ([1]; Intravenous, 10 mg/kg) of 0.08 ± 0.0 h, a Cmax ([1]; Intravenous, 10 mg/kg) of 2645 ± 154 ng/mL and an AUCt ([1]; Oral, 10 mg/kg) of 6222 ± 1025 ng·h/mL. For the same compound, the T1/2 ([1]; Oral, 10 mg/kg) was 5.40 ± 2.56 h, the Tmax ([1]; Oral, 10 mg/kg) was 1.67 ± 1.15 h and the Cmax ([1]; Oral, 10 mg/kg) was 964 ± 110 ng/mL. For the same compound, the Bioavailability [1] was 63%, the “% Inhibition at 10 nM” value (Human 5-HT6 Receptor) was 71.95% and the “% Inhibition at 100 nM” value (Human 5-HT6 Receptor) was 99.38%. For the same compound, the “% Inhibition at 1000 nM” value (Human 5-HT6 Receptor) was 100.63% and the “Steady State Brain Penetration (Cb/Cp)” value [2] was 0.04 ± 0.01.

With CN1CCC(Nc2cc(NS(=O)(=O)c3ccccc3Br)ccc2Cl)CC1 [Example 5, 2-Bromo-N-[4-Chloro-3-(1-methylpiperidin-4-ylamino)phenyl] benzenesulfonamide] the “% Inhibition at 100 nM” value (Human 5-HT6 Receptor) was 93.8% and the “% Inhibition at 1000 nM” value (Human 5-HT6 Receptor) was 101.6%.

With COc1ccc(NS(=O)(=O)c2ccc(C)cc2)cc1NC1CCN(C)CC1 [Example 10, 4-Methyl-N-[4-Methoxy-3-(1-methylpiperidin-4-ylamino)phenyl] benzenesulfonamide] the “% Inhibition at 100 nM” value (Human 5-HT6 Receptor) was 88.26% and the “% Inhibition at 1000 nM” value (Human 5-HT6 Receptor) was 99.2%.

With Cc1ccc(NS(=O)(=O)c2ccccc2Br)cc1NC1CCN(C)CC1 [Example 15, 2-Bromo-N-[4-Methyl-3-(1-methylpiperidin-4-ylamino)phenyl] benzenesulfonamide] the “Scopolamine Induced Reversal” value (rats) was “≦3 mg/kg, p.o”, the “Exploration time mean ± S.E.M (sec), first value column” value (Male Wister rats) was 6.89 ± 1.54 s and the “Exploration time mean ± S.E.M (sec), second value column” value (Male Wister rats) was 13.26 ± 2.80 s. For the same compound, the Inference (Male Wister rats) was “Active”, the AUCt ([1]; Intravenous, 5 mg/kg) was 1231 ± 52 ng·h/mL and the T1/2 ([1]; Intravenous, 5 mg/kg) was 3.08 ± 2.11 h. It also gave a Tmax ([1]; Intravenous, 5 mg/kg) of 0.08 ± 0.0 h, a Cmax ([1]; Intravenous, 5 mg/kg) of 727 ± 18 ng/mL and an AUCt ([1]; Oral, 10 mg/kg) of 2462 ± 901 ng·h/mL. The T1/2 ([1]; Oral, 10 mg/kg) was 3.15 ± 2.99 h, the Tmax ([1]; Oral, 10 mg/kg) was 2.33 ± 1.15 h and the Cmax ([1]; Oral, 10 mg/kg) was 503 ± 263 ng/mL. For the same compound, the Bioavailability [1] was 99%, the “% Inhibition at 100 nM” value (Human 5-HT6 Receptor) was 99.44% and the “% Inhibition at 1000 nM” value (Human 5-HT6 Receptor) was 104.28%. For the same compound, the “Steady State Brain Penetration (Cb/Cp)” value [2] was 0.35 ± 0.08.

For COc1ccc(NS(=O)(=O)c2ccc(F)cc2)cc1NC1CCN(C)CC1 [Example 6, 4-Fluoro-N-[4-Methoxy-3-(1-methylpiperidin-4-ylamino)phenyl] benzenesulfonamide], the “Scopolamine Induced Reversal” value (rats) was “≦3 mg/kg, p.o”, the “Exploration time mean ± S.E.M (sec), first value column” value (Male Wister rats) was 10.02 ± 1.54 s and the “Exploration time mean ± S.E.M (sec), second value column” value (Male Wister rats) was 15.27 ± 1.32 s. The Inference (Male Wister rats) was “Active”, the AUCt ([1]; Intravenous, 10 mg/kg) was 4314 ± 967 ng·h/mL and the T1/2 ([1]; Intravenous, 10 mg/kg) was 2.18 ± 1.29 h. It also gave a Tmax ([1]; Intravenous, 10 mg/kg) of 0.14 ± 0.10 h, a Cmax ([1]; Intravenous, 10 mg/kg) of 2885 ± 401 ng/mL and an AUCt ([1]; Oral, 10 mg/kg) of 1421 ± 106 ng·h/mL. It also gave a T1/2 ([1]; Oral, 10 mg/kg) of 5.35 ± 3.65 h, a Tmax ([1]; Oral, 10 mg/kg) of 2.17 ± 1.44 h and a Cmax ([1]; Oral, 10 mg/kg) of 372 ± 85 ng/mL. The Bioavailability [1] was 34%, the “% Inhibition at 10 nM” value (Human 5-HT6 Receptor) was 20.71% and the “% Inhibition at 100 nM” value (Human 5-HT6 Receptor) was 90.83%. For the same compound, the “% Inhibition at 1000 nM” value (Human 5-HT6 Receptor) was 99.64% and the “Steady State Brain Penetration (Cb/Cp)” value [2] was 0.05 ± 0.01.

With CN1CCC(Nc2cccc(NS(=O)(=O)c3ccc(F)cc3)c2)CC1 [Example 13, 4-Fluoro-N-[3-(1-methylpiperidin-4-ylamino)phenyl] benzenesulfonamide] the “% Inhibition at 100 nM” value (Human 5-HT6 Receptor) was 34.95% and the “% Inhibition at 1000 nM” value (Human 5-HT6 Receptor) was 71.2%.
